# Reference: patent publication US4207326A, “Antimicrobial quaternary pyrazole derivatives” (Cilag-Chemie A.G., priority 1979, dated 1980)
# Read-outs that look alike come from different tables or passages of the source.
# Columns and labels:
# [1] = test system: C. neoformans; assay: Antimycotic activity: Minimum Inhibitory Concentration; type: cell-based, Cryptococcus neoformans NCPF 3184; conditions: Cryptococcus neoformans, pH 5.5, 30° C., 72 hours
# Description: (§1) The antimicrobial activity was determined by inoculation of the test microorganism into suitable growth media containing solutions of the compounds at concentrations of 100, 50, 10, 5, 1.0, 0.5 and 0.1 μg/ml. The reference antibiotics used were Gentamicin for the antibacterial tests and Amphotericin B for the antimycotic and antifungal tests. After incubation the antimicrobial activity was recorded as the Minimal Inhibitory Concentration (M.I.C.), i.e., the lowest concentration preventing macroscopically visible growth, for each test compound against each organism.
# (§2) An initial solution of each formula (I) compound to be tested in sterile distilled water was prepared at a concentration of 1000 μg/ml. With appropriate dilutions using sterile distilled water, additional solutions were prepared at concentrations of 500, 100, 50, 10, 5 and 1 μg/ml.
# The C. neoformans was also maintained on Sabouraud-Dextrose Agar (Oxoid CM 41), but in this case cultures for the preparation of the inoculum were incubated on this agar at 30° C. for 48 hours. A 4.5 ml volume of citric acid-phosphate buffer pH 5.5 plus Yeast-Nitrogen Base (Difco-0392-15) was then inoculated from the agar culture and incubated at 30° C. for 48 hours. A 0.1 ml aliquot of this culture was then added to 100 ml sterile physiological saline to give the final inoculum.
# (§3) (b) For the tests on each of the C. albicans, C. tropicalis and C. neoformans strains and each of the test and reference compounds, a series of 8 tubes containing 4.5 ml volumes of citric acid-phosphate buffer pH 5.5 plus Yeast-Nitrogen Base (Difco 0392-15) were prepared. To 7 of these were added 0.5 ml volumes of the final solutions of the test compounds, giving final concentrations in the broths of 100, 50, 10, 5, 1.0, 0.5 and 0.1 μg/ml. To the eighth tube in each series was added 0.5 ml of the solvent used and diluted as for the preparation of the 1000 μg/ml solution of the compound. This tube was used as the growth control. The tubes were then inoculated with 0.1 ml aliquots of the inocula prepared as in "(b) Fungi" above. The tubes inoculated with the C. albicans and C. tropicalis were inoculated at 37° C. for 72 hours and the tubes inoculated with the C. neoformans straim were incubated at 30° C. for 72 hours. […] The tubes were then examined for evidence of growth as shown by turbidity of the medium and the lowest concentration of the test compound which prevented fungal growth was recorded as the Minimal Inhibitory Concentration. This test procedure was carried out on two separate days.
# [2] = test system: S. schenkii; assay: Antifungal activity: Minimum Inhibitory Concentration; type: cell-based, Sporotrichon schenkii NCPF 3182
# Description: as §1, §2
# (§4) The A. corymbifera, A. fumigatus, S. schenkii, T. rubrum, T. mentagrophytes, M. canis and P. verrucosa strains were all maintained on Sabouraud-Dextrose Agar (Oxoid CM 41) by incubating for 14 days at 27° C. To prepare the inocula 30 ml volumes of Sabouraud-Liquid medium (Oxoid CM 147) were inoculated from the agar cultures and incubated at 27° C. until heavy uniform growth resulted. The mycelial growth was then broken up by shaking with glass beads.
# (§5) 1 Ml aliquots were removed from each of the cultures for the purpose of making viable counts and the cultures were then held at 4° C. The viable counts were made by preparing serial ten-fold dilutions of the cultures in sterile physiological saline and spreading on plates of Sabouraud-Dextrose Agar (Oxoid CM 41) which were then incubated at 27° C. for 14 days. When the viable counts had confirmed that each of the inocula contained approximately 10^6 colony forming units (C.F.U.) per ml the cultures were withdrawn from the refrigerator and used as the inocula for the tests.
# (§6) (c) For the tests on each of the remaining seven strains and each of the test and reference compounds, a series of 8 tubes containing 4.5 ml volumes of Sabouraud-Liquid Medium (Oxoid CM 147) were prepared. To 7 of these were added 0.5 ml volumes of the final solutions of the test compounds, giving final concentrations in the broths of 100, 50, 10, 5, 1.0, 0.5 and 0.1 μg/ml. To the eighth tube in each series was added 0.5 ml of the solvent used and diluted as for the preparation of the 500 μg/ml solution of the compound. This tube was used as a growth control. The tubes were then inoculated with 0.1 ml aliquots of the inocula prepared as in "(b) Fungi" above. The tubes were then incubated at 27° C. with continuous shaking for a period of one week. The tubes were then examined for evidence of growth as shown by the presence of mycelial growth in the medium and the lowest concentration of the test compound which prevented fungal growth was recorded as the Minimal Inhibitory Concentration. This test procedure was carried out on two separate days.
# [3] = test system: C. tropicalis; assay: Antimycotic activity: Minimum Inhibitory Concentration; type: cell-based, Candida tropicalis NCPF 3111; conditions: Candida tropicalis, pH 5.5, 37° C., 72 hours
# Description: as §1, §2
# (§7) The two species, C. albicans and C. tropicalis, were maintained on Sabouraud-Dextrose Agar (Oxoid CM41) and cultures for the preparation of the inoculum were incubated on this agar at 37° C. for 48 hours. 4.5 Ml volumes of citric acid-phosphate buffer pH 5.5 plus Yeast-Nitrogen Base (Difco 0392-15) were then inoculated from the agar cultures and incubated at 37° C. for 48 hours. 0.1 Ml aliquots of these cultures were then added to 100 ml volumes of sterile physiological saline to give the final inocula.
# as §3
# [4] = test system: P. verrucosa; assay: Antifungal activity: Minimum Inhibitory Concentration; type: cell-based, Phialophore verrucosa NCPF 1119
# Description: as §1, §2, §4, §5, §6
# [5] = test system: C. albicans; assay: Antimycotic activity: Minimum Inhibitory Concentration; type: cell-based, Candida albicans ATCC 10231
# Description: as §1, §2, §7, §3
# [6] = test system: M. canis; assay: Antifungal activity: Minimum Inhibitory Concentration; type: cell-based, Microsporum canis NCPF 351
# Description: as §1, §2, §4, §5, §6
# [7] = test system: T. rubrum; assay: as above; type: cell-based, Trichophyton rubrum NCPF 197
# Description: as §1, §2, §4, §5, §6
# [8] = test system: A. fumigatus; assay: as above; type: cell-based, Aspergillus fimigatus (A. fumigatus) NCPF 2140
# Description: as §1, §2, §4, §5, §6
# [9] = test system: T. mentagrophytes; assay: as above; type: cell-based, Trichophyton mentagrophytes NCPF 410
# Description: as §1, §2
# T. mentagrophytes NCPF 410
# as §4, §5, §6
# [10] = test system: A. corymbifera; assay: as above; type: cell-based, Absidia corymbifera NCPF 2001
# Description: as §1, §2
# A. corymbifera NCPF 2001
# as §4, §5, §6
# [11] = test system: S. pyogenes; assay: Antibacterial activity: Minimum Inhibitory Concentration; type: cell-based, Streptococcus pyogenes NCTC 8198; conditions: 24 hours
# Description: as §1, §2
# (§8) They were cultured and maintained on Tryptone Soy Agar (Oxoid CM 131), with the addition of 10% horse blood for the S. pyogenes.
# (§9) To prepare the organisms as inocula for the test, slopes of this medium were streaked with the organisms and incubated at 37° C. for 24 hours. 4.5 Ml volumes of Brian-Heart Infusion Broth (Oxoid CM 225) were then inoculated with a platinum loop from the agar slope cultures and incubated for 24 hours at 37° C. The final inocula were then prepared by adding 0.1 ml aliquots of the Brain-Heart Infusion Broth cultures to 100 ml volumes of sterile physiological saline.
# (§10) (a) For the test on each of the bacterial strains and each of the test and reference compounds, a series of 8 tubes containing 4.5 ml volumes of Brain-Heart Infusion Broth (Oxoid CM 225) were prepared. To 7 of these were added 0.5 ml volumes of the final solutions of the test compouns, giving final concentrations in the broths of 100, 50, 10, 5, 1.0, 0.5 and 0.1 μg/ml. To the eighth tube in each series was added 0.5 ml of the solvent used and diluted as for the preparation of the 1000 μg/ml solution of the compound. This tube was used as the growth control. The tubes were inoculated with 0.02 ml aliquots of the inocula prepared in accordance with "(a) Bacteria" above, and incubated at 37° C. for 24 hours. The tubes were then examined for evidence of bacterial growth as shown by turbidity of the medium and the lowest concentration of the test compound which prevented bacterial growth was recorded as the Minimal Inhibitory Concentration. This test procedure was carried out on two separate days.
# [12] = test system: S. aureus; assay: as above; type: cell-based, Staphylococcus aureus ATCC 6538; conditions: 24 hours
# Description: as §1, §2, §8, §9, §10
# [13] = test system: P. mirabilis; assay: as above; type: cell-based, Proteus mirabilis NCTC 8559; conditions: P. mirabilis, 37° C., 24 hours
# Description: as §1, §2, §8, §9, §10
# [14] = test system: P. aeruginosa; assay: as above; type: cell-based, Pseudomonas aeruginosa ATCC 9027; conditions: P. aeruginosa, 37° C., 24 hours
# Description: as §1, §2, §8, §9, §10
# [15] = test system: E. coli; assay: as above; type: cell-based, Escherichia coli ATCC 8739; conditions: 24 hours
# Description: as §1, §2, §8, §9, §10
compound,measurement,setting,value
"C[C@@H]1[C@H](O)[C@@H](C)/C=C/C=C/C=C/C=C/C=C/C=C/C=C/[C@H](O[C@@H]2O[C@H](C)[C@@H](O)[C@H](N)[C@@H]2O)C[C@@H]2O[C@](O)(C[C@@H](O)C[C@@H](O)[C@H](O)CC[C@@H](O)C[C@@H](O)CC(=O)O[C@H]1C)C[C@H](O)[C@H]2C(=O)O [Amphotericin B, reference compound]",MIC,"[1]; pH 5.5, read-out: Minimum Inhibitory Concentrations, C. neoformans, Day 1",1 µg/mL
same,MIC,"[1]; pH 5.5, read-out: Minimum Inhibitory Concentrations, C. neoformans, Day 2",0.5 µg/mL
same,Minimum Inhibitory Concentration,"[2]; S. schenkii, Day 2, 27° C., one week",50 µg/mL
same,MIC,[2]; read-out: Minimum Inhibitory Concentration,50 µg/mL
same,MIC,"[3]; pH 5.5, read-out: Minimum Inhibitory Concentrations, C. tropicalis, Day 1",1 µg/mL
same,MIC,"[3]; pH 5.5, read-out: Minimum Inhibitory Concentrations, C. tropicalis, Day 2",1 µg/mL
same,Minimum Inhibitory Concentration,"[4]; P. verrucosa, Day 2, 27° C., one week",10 µg/mL
same,MIC,"[4]; Phialophora verrucosa, read-out: Minimum Inhibitory Concentration",10 µg/mL
same,Minimum Inhibitory Concentrations,"[5]; C. albicans, Day 2, pH 5.5, 37° C., 72 hours",1 µg/mL
same,MIC,"[5]; Candida albicans, pH 5.5, read-out: Minimum Inhibitory Concentrations",1 µg/mL
same,Minimum Inhibitory Concentration,"[6]; M. canis, Day 2, 27° C., one week",1 µg/mL
same,MIC,"[6]; Microsporum canis, read-out: Minimum Inhibitory Concentration",1 µg/mL
same,Minimum Inhibitory Concentration,"[7]; T. rubrum, Day 2, 27° C., one week",50 µg/mL
same,MIC,"[7]; Trichophyton rubrum, read-out: Minimum Inhibitory Concentration",50 µg/mL
same,Minimum Inhibitory Concentration,"[8]; A. fumigatus, Day 2, 27° C., one week",5 µg/mL
same,MIC,"[8]; Aspergillus fumigatus, read-out: Minimum Inhibitory Concentration",5 µg/mL
same,Minimum Inhibitory Concentration,"[9]; T. mentagrophytes, Day 1, 27° C., one week",50 µg/mL
same,MIC,"[9]; Trichophyton mentagrophytes, read-out: Minimum Inhibitory Concentration",50 µg/mL
same,Minimum Inhibitory Concentration,"[10]; A. corymbifera, Day 2, 27° C., one week",5 µg/mL
same,MIC,"[10]; Lichtheimia corymbifera, read-out: Minimum Inhibitory Concentration",5 µg/mL
Gentamicin [reference compound],Minimum Inhibitory Concentration,"[11]; Day 1, 37° C.",0.5 µg/mL
same,Minimum Inhibitory Concentration,"[11]; Day 2, 37° C.",0.5 µg/mL
same,Minimum Inhibitory Concentration,"[12]; Day 1, 37° C.",0.5 µg/mL
same,Minimum Inhibitory Concentration,"[12]; Day 2, 37° C.",0.5 µg/mL
same,Minimum Inhibitory Concentration,[13]; Day 1,5 µg/mL
same,Minimum Inhibitory Concentration,[13]; Day 2,5 µg/mL
same,Minimum Inhibitory Concentration,[14]; Day 1,1 µg/mL
same,Minimum Inhibitory Concentration,[14]; Day 2,1 µg/mL
same,Minimum Inhibitory Concentration,"[15]; Day 1, 37° C.",10 µg/mL
same,Minimum Inhibitory Concentration,"[15]; Day 2, 37° C.",10 µg/mL
